Source: US20260125382A1, “COMPOUNDS FOR INHIBITING OR DEGRADING CDK2 AND/OR CDK9 AND MEDICINAL USE THEREOF” (KOREA RESEARCH INSTITUTE OF CHEMICAL TECHNOLOGY, priority 2022, published 2026)

How the values were obtained:
[1] = molecular target: T1, CDK2 (Homo sapiens, UniProt P24941); assay: CDK protein degradation activity (Western blotting), CDK2; type: cell-based; details: MDA-MB-231 cells, 16 hours, Western blot
T1 construct: endogenous in cells; host or cells: MDA-MB-231
Procedure, shortened: (§1)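 MDA-MB-231; cmpd 100 nM / 1 μM / 10 μM final vs DMSO, 16 h. Triton X-100 lysates (pH 7.5, phosphatase/protease inhibitors) → SDS-PAGE → Western blot, anti-CDK2, anti-CDK9, tubulin loading control; densitometry.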

[2] = molecular target: T2, CDK9 (Homo sapiens, UniProt P50750); assay: CDK protein degradation activity (Western blotting), CDK9; type: cell-based; details: MDA-MB-231 cells, 16 hours, Western blot
T2 construct: endogenous in cells; host or cells: MDA-MB-231
T2 sequence (P50750 whole entry): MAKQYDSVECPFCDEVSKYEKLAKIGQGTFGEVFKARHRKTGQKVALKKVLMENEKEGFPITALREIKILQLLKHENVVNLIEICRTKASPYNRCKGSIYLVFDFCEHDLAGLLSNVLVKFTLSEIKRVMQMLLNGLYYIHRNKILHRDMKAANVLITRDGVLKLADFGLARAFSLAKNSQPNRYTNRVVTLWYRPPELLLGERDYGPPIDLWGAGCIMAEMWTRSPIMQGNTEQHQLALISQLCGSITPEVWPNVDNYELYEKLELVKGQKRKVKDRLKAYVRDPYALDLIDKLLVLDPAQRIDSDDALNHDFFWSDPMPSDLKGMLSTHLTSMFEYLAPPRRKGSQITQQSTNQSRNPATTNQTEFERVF
Procedure, shortened: as §1

SMILES	Enzyme degradation CDK2 (% remaining) @ 0.1 μM [1]	Enzyme degradation CDK2 (% remaining) @ 1 μM [1]	Enzyme degradation CDK2 (% remaining) @ 10 μM [1]	Enzyme degradation CDK9 (% remaining) @ 0.1 μM [2]	Enzyme degradation CDK9 (% remaining) @ 1 μM [2]	Enzyme degradation CDK9 (% remaining) @ 10 μM [2]
O=C1CC[C@@H](c2ccc(OCC(=O)N3CCC(CN4CCN(c5ccc(Nc6ncnc7c6ncn7C6CC(NC(=O)Cc7ccccc7)C6)cc5)CC4)CC3)cc2)C(=O)N1 (stereo partly drawn) [Compound 202, N-((1s,3s)-3-(6-((4-(4-((1-(2-(4-(2,6-dioxopiperidin-3-yl)phenoxy)acetyl)piperidin-4-yl)methyl)piperazin-1-yl)phenyl)amino)-9H-purin-9-yl)cyclobutyl)-2-phenylacetamide]	30%	20%	40%	10%	0%	0%
O=C1CC[C@@H](c2ccc(OCC(=O)N3CCC(CC(=O)N4CCN(c5ccc(Nc6ncnc7c6ncn7C6CC(NC(=O)Cc7ccccc7)C6)cc5)CC4)CC3)cc2)C(=O)N1 (stereo partly drawn) [Compound 203, N-((1s,3s)-3-(6-((4-(4-(2-(1-(2-(4-(2,6-dioxopiperidin-3-yl)phenoxy)acetyl)piperidin-4-yl)acetyl)piperazin-1-yl)phenyl)amino)-9H-purin-9-yl)cyclobutyl)-2-phenylacetamide]	70%	40%	70%	20%	0%	0%
O=C1CC[C@H](N2C(=O)c3cccc(NCC(=O)N4CCC5(CC4)CC(N4CCN(c6ccc(Nc7ncnc8c7ncn8[C@H]7C[C@@H](NC(=O)Cc8ccccc8)C7)cc6)CC4)C5)c3C2=O)C(=O)N1 [Compound 204, N-((1s,3s)-3-(6-((4-(4-(7-((2-(2,6-dioxopiperidin-3-yl)-1,3-dioxoisoindolin-4-yl)glycyl)-7-azaspiro[3.5]nonan-2-yl)piperazin-1-yl)phenyl)amino)-9H-purin-9-yl)cyclobutyl)-2-phenylacetamide]	20/20/20%	20/20/20%	20/20/20%	0/0/0%	0/0/0%	0/0/0%
O=C1CCC(c2ccc(OCC(=O)N3CCC4(CC3)CC(N3CCN(c5ccc(Nc6ncnc7c6ncn7[C@H]6C[C@@H](NC(=O)Cc7ccccc7)C6)cc5)CC3)C4)cc2)C(=O)N1 (stereo partly drawn) [Compound 205, N-((1s,3s)-3-(6-((4-(4-(7-(2-(4-(2,6-dioxopiperidin-3-yl)phenoxy)acetyl)-7-azaspiro[3.5]nonan-2-yl)piperazin-1-yl)phenyl)amino)-9H-purin-9-yl)cyclobutyl)-2-phenylacetamide]	30/30/30%	30/30/30%	30/30/30%	0/0/0%	0/0/0%	0/0/0%
O=C1CCC(N2C(=O)c3cccc(OCC(=O)N4CCC5(CC4)CC(N4CCN(c6ccc(Nc7ncnc8c7ncn8[C@H]7C[C@@H](NC(=O)Cc8ccccc8)C7)cc6)CC4)C5)c3C2=O)C(=O)N1 (stereo partly drawn) [Compound 206, N-((1s,3s)-3-(6-((4-(4-(7-(2-((2-(2,6-dioxopiperidin-3-yl)-1,3-dioxoisoindolin-4-yl)oxy)acetyl)-7-azaspiro[3.5]nonan-2-yl)piperazin-1-yl)phenyl)amino)-9H-purin-9-yl)cyclobutyl)-2-phenylacetamide]	20%	20%	10%	0/0/0%	0/0/0%	0/0/0%
O=C1CC[C@H](N2C(=O)c3ccc(NCC(=O)N4CCC5(CC4)CC(N4CCN(c6ccc(Nc7ncnc8c7ncn8[C@H]7C[C@@H](NC(=O)Cc8ccccc8)C7)cc6)CC4)C5)cc3C2=O)C(=O)N1 [Compound 207, N-((1s,3s)-3-(6-((4-(4-(7-((2-(2,6-dioxopiperidin-3-yl)-1,3-dioxoisoindolin-5-yl)glycyl)-7-azaspiro[3.5]nonan-2-yl)piperazin-1-yl)phenyl)amino)-9H-purin-9-yl)cyclobutyl)-2-phenylacetamide]	50%	70%	50%	0/0/0%	0/0/0%	0/0/0%
O=C1CC[C@H](N2C(=O)c3ccc(OCC(=O)N4CCC5(CC4)CC(N4CCN(c6ccc(Nc7ncnc8c7ncn8[C@H]7C[C@@H](NC(=O)Cc8ccccc8)C7)cc6)CC4)C5)cc3C2=O)C(=O)N1 [Compound 208, N-((1s,3s)-3-(6-((4-(4-(7-(2-((2-(2,6-dioxopiperidin-3-yl)-1,3-dioxoisoindolin-5-yl)oxy)acetyl)-7-azaspiro[3.5]nonan-2-yl)piperazin-1-yl)phenyl)amino)-9H-purin-9-yl)cyclobutyl)-2-phenylacetamide]	80%	70%	70%	10%	0%	0%
O=C1CC[C@H](N2C(=O)c3cccc(N4CCC5(CC4)CC(N4CCN(c6ccc(Nc7ncnc8c7ncn8[C@H]7C[C@@H](NC(=O)Cc8ccccc8)C7)cc6)CC4)C5)c3C2=O)C(=O)N1 [Compound 209, N-((1s,3s)-3-(6-((4-(4-(7-(2-(2,6-dioxopiperidin-3-yl)-1,3-dioxoisoindolin-4-yl)-7-azaspiro[3.5]nonan-2-yl)piperazin-1-yl)phenyl)amino)-9H-purin-9-yl)cyclobutyl)-2-phenylacetamide]	70%	60%	30%	30%	20%	10%
